From ChEMBL document CHEMBL4507329, “Data for DCP probe BTZO-1” (2021)

Columns and labels:
[1] = target: Rhodopsin kinase GRK1 (Homo sapiens) (UniProt Q15835); conditions: Compound concentration 1000.0 nM
[2] = system: Phosphatidylinositol 4,5-bisphosphate 3-kinase catalytic subunit alpha isoform (Homo sapiens), P42336 [C420R]; conditions: Compound concentration 1000.0 nM
[3] = target: Serine/threonine-protein kinase pim-2 (Homo sapiens) (UniProt Q9P1W9); conditions: Compound concentration 1000.0 nM
[4] = target: Protein-tyrosine kinase 2-beta (Homo sapiens) (UniProt Q14289); conditions: Compound concentration 1000.0 nM
[5] = target: Aurora kinase C (Homo sapiens) (UniProt Q9UQB9); conditions: Compound concentration 1000.0 nM
[6] = target: Dual specificity mitogen-activated protein kinase kinase 5 (Homo sapiens) (UniProt Q13163); conditions: Compound concentration 1000.0 nM
[7] = target: Ribosomal protein S6 kinase alpha-6 (Homo sapiens) (UniProt Q9UK32); conditions: Compound concentration 1000.0 nM
[8] = target: Tyrosine-protein kinase JAK3 (Homo sapiens) (UniProt P52333); conditions: Compound concentration 1000.0 nM
[9] = target: Calcium/calmodulin-dependent protein kinase type 1 (Homo sapiens) (UniProt Q14012); conditions: Compound concentration 1000.0 nM
[10] = target: NUAK family SNF1-like kinase 2 (Homo sapiens) (UniProt Q9H093); conditions: Compound concentration 1000.0 nM
[11] = target: Phosphatidylinositol 4-kinase beta (Homo sapiens) (UniProt Q9UBF8); conditions: Compound concentration 1000.0 nM
[12] = target: Tyrosine-protein kinase JAK1 (Homo sapiens) (UniProt P23458); conditions: Compound concentration 1000.0 nM
[13] = target: Receptor-type tyrosine-protein kinase FLT3 (Homo sapiens) (UniProt P36888); conditions: Compound concentration 1000.0 nM
[14] = target: Serine/threonine-protein kinase TAO3 (Homo sapiens) (UniProt Q9H2K8); conditions: Compound concentration 1000.0 nM
[15] = target: Ephrin type-B receptor 3 (Homo sapiens) (UniProt P54753); conditions: Compound concentration 1000.0 nM
[16] = target: Insulin receptor-related protein (Homo sapiens) (UniProt P14616); conditions: Compound concentration 1000.0 nM
[17] = system: Tyrosine-protein kinase ABL1 (Homo sapiens), P00519 [T315I]; conditions: Compound concentration 1000.0 nM
[18] = target: RAC-alpha serine/threonine-protein kinase (Homo sapiens) (UniProt P31749); conditions: Compound concentration 1000.0 nM
[19] = target: AP2-associated protein kinase 1 (Homo sapiens) (UniProt Q2M2I8); conditions: Compound concentration 1000.0 nM
[20] = target: Protein-tyrosine kinase 6 (Homo sapiens) (UniProt Q13882); conditions: Compound concentration 1000.0 nM
Sequence of Protein-tyrosine kinase 6 (Homo sapiens) (Q13882 whole entry, looked up): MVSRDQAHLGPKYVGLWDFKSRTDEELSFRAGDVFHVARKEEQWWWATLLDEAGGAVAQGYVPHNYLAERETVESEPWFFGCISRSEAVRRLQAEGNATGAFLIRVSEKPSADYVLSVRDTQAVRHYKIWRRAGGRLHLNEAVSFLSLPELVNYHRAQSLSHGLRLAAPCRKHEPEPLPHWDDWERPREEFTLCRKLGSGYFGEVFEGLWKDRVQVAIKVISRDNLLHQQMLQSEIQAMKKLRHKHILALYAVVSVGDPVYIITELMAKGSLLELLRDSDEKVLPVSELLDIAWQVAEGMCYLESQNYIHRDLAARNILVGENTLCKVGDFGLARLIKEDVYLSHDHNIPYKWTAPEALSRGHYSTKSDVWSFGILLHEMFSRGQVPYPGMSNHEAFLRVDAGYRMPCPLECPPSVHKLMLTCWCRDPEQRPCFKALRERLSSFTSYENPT

[21] = target: Serine/threonine-protein kinase PLK1 (Homo sapiens) (UniProt P53350); conditions: Compound concentration 1000.0 nM
[22] = target: Phosphatidylinositol 4-phosphate 5-kinase type-1 gamma (Homo sapiens) (UniProt O60331); conditions: Compound concentration 1000.0 nM
[23] = target: Activin receptor type-1B (Homo sapiens) (UniProt P36896); conditions: Compound concentration 1000.0 nM
[24] = target: Myosin light chain kinase, smooth muscle (Homo sapiens) (UniProt Q15746); conditions: Compound concentration 1000.0 nM
[25] = target: Cytoplasmic tyrosine-protein kinase BMX (Homo sapiens) (UniProt P51813); conditions: Compound concentration 1000.0 nM
[26] = target: Tyrosine-protein kinase ZAP-70 (Homo sapiens) (UniProt P43403); conditions: Compound concentration 1000.0 nM
[27] = target: Beta-3 adrenergic receptor (Homo sapiens) (UniProt P13945); conditions: Compound concentration 10.0 uM
[28] = system: Receptor-type tyrosine-protein kinase FLT3 (Homo sapiens), P36888 [UNDEFINED MUTATION]; conditions: Compound concentration 1000.0 nM
[29] = target: Tyrosine-protein kinase SYK (Homo sapiens) (UniProt P43405); conditions: Compound concentration 1000.0 nM
[30] = target: Serine/threonine-protein kinase WNK1 (Homo sapiens) (UniProt Q9H4A3); conditions: Compound concentration 1000.0 nM
[31] = target: Ephrin type-A receptor 6 (Homo sapiens) (UniProt Q9UF33); conditions: Compound concentration 1000.0 nM
Sequence of Ephrin type-A receptor 6 (Homo sapiens) (Q9UF33 whole entry): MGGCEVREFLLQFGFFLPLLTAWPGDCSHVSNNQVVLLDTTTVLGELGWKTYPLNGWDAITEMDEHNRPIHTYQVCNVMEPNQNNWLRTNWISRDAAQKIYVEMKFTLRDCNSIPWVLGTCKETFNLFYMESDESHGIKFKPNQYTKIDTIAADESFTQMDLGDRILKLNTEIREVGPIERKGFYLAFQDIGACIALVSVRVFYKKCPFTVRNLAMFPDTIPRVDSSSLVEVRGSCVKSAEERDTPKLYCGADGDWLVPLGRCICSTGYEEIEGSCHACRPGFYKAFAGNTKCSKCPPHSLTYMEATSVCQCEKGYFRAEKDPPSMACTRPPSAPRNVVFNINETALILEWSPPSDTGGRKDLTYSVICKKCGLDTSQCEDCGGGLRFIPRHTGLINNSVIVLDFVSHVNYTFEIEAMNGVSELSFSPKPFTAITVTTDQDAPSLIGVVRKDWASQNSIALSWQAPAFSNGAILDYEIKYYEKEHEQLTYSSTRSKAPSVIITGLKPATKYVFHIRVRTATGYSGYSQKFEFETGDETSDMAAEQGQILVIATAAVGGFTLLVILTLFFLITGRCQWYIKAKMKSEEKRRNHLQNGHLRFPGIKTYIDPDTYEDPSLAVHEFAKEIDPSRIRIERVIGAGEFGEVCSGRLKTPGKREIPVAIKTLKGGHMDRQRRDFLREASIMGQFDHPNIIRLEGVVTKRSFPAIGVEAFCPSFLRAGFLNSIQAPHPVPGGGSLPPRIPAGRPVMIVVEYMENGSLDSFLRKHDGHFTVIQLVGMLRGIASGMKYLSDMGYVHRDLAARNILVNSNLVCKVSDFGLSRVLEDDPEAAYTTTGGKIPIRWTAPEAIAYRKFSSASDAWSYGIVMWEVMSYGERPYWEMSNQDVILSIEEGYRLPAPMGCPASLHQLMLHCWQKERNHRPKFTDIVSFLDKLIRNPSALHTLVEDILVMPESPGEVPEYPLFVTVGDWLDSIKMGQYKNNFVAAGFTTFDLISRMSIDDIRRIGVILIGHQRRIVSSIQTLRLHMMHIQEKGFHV

[32] = target: Uncharacterized serine/threonine-protein kinase SBK3 (Homo sapiens) (UniProt P0C264); conditions: Compound concentration 1000.0 nM
Sequence of Uncharacterized serine/threonine-protein kinase SBK3 (Homo sapiens) (P0C264 whole entry): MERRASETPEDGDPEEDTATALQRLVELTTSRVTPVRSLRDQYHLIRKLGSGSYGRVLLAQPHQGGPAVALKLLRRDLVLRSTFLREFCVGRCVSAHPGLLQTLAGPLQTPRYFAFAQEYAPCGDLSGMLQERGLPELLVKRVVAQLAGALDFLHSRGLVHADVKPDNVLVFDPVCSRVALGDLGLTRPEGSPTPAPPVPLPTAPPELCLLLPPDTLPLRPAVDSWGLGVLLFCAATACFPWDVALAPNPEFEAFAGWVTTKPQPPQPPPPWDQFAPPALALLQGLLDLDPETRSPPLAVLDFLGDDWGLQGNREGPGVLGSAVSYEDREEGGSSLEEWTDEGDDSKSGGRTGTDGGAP

[33] = target: Ephrin type-A receptor 4 (Homo sapiens) (UniProt P54764); conditions: Compound concentration 1000.0 nM
Sequence of Ephrin type-A receptor 4 (Homo sapiens) (P54764 whole entry): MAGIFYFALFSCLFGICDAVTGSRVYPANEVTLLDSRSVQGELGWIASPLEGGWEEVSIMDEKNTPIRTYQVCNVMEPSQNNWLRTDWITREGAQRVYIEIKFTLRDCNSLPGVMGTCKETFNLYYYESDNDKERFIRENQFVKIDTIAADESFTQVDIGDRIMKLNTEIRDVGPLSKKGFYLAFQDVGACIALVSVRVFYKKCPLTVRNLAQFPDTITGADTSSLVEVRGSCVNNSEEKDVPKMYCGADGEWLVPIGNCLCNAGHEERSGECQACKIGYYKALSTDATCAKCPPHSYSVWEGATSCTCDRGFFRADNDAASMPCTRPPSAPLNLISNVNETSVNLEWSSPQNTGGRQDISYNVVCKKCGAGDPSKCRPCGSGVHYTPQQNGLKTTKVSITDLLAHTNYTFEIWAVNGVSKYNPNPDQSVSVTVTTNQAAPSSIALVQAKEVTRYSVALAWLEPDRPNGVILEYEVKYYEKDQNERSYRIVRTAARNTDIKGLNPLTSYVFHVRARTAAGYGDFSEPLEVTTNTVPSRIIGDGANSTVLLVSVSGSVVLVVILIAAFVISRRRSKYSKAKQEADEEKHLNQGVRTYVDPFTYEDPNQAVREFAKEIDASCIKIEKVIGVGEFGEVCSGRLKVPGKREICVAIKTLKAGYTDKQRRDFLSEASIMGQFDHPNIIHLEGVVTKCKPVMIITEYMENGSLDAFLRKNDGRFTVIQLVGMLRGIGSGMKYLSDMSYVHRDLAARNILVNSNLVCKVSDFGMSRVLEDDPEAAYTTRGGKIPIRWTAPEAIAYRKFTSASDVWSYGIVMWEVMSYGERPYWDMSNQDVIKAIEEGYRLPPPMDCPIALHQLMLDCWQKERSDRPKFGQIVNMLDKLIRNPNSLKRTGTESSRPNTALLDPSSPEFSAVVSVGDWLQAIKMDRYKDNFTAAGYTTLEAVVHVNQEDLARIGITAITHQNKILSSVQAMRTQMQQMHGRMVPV

[34] = target: Serine/threonine-protein kinase B-raf (Homo sapiens) (UniProt P15056); conditions: Compound concentration 1000.0 nM
[35] = target: Serine/threonine-protein kinase 32A (Homo sapiens) (UniProt Q8WU08); conditions: Compound concentration 1000.0 nM
[36] = target: Macrophage colony-stimulating factor 1 receptor (Homo sapiens) (UniProt P07333); conditions: Compound concentration 1000.0 nM
[37] = target: Serine/threonine-protein kinase PknB (Mycobacterium tuberculosis) (UniProt P9WI81); conditions: Compound concentration 1000.0 nM
Sequence of Serine/threonine-protein kinase PknB (Mycobacterium tuberculosis) (P9WI81 whole entry): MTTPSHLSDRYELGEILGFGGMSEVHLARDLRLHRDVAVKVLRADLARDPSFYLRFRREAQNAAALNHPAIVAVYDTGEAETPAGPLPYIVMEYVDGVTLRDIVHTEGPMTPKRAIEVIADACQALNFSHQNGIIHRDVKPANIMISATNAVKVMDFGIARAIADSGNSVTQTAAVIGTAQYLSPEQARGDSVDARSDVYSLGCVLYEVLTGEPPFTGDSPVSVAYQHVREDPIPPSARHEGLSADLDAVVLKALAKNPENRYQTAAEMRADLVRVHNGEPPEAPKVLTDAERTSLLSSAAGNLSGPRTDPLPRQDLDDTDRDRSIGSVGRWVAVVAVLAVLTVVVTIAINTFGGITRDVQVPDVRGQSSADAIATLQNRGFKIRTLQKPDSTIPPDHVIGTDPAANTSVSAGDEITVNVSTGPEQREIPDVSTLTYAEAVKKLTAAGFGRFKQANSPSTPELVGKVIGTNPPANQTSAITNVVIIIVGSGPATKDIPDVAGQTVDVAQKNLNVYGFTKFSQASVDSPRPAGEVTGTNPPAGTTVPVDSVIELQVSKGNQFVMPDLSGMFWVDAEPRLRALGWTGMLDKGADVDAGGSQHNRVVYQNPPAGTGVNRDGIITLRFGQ

[38] = target: Tyrosine-protein kinase Fer (Homo sapiens) (UniProt P16591); conditions: Compound concentration 1000.0 nM
Sequence of Tyrosine-protein kinase Fer (Homo sapiens) (P16591 whole entry, looked up): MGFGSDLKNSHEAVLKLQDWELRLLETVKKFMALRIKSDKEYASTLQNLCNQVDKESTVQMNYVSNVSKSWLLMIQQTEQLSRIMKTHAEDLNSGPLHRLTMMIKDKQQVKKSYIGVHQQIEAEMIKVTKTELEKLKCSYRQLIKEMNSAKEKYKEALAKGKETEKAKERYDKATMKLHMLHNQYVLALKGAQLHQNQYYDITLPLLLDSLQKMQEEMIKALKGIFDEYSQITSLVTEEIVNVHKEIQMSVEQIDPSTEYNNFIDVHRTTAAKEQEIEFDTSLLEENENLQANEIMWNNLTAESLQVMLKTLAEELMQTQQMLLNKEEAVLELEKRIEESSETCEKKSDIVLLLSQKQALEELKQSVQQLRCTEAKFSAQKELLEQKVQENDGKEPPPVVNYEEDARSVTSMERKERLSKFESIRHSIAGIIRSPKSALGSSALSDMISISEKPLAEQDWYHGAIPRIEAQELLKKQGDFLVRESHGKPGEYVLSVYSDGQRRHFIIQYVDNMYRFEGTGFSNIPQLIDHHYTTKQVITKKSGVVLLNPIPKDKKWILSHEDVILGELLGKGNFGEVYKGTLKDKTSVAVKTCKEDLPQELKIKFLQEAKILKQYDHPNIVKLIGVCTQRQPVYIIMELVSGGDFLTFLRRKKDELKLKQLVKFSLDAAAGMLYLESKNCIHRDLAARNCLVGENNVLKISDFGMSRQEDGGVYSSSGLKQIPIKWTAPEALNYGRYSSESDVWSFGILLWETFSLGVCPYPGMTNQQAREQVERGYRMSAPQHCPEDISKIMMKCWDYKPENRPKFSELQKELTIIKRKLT

[39] = target: Mitogen-activated protein kinase kinase kinase 4 (Homo sapiens) (UniProt Q9Y6R4); conditions: Compound concentration 1000.0 nM
[40] = target: Maternal embryonic leucine zipper kinase (Homo sapiens) (UniProt Q14680); conditions: Compound concentration 1000.0 nM
Sequence of Maternal embryonic leucine zipper kinase (Homo sapiens) (Q14680 whole entry, looked up): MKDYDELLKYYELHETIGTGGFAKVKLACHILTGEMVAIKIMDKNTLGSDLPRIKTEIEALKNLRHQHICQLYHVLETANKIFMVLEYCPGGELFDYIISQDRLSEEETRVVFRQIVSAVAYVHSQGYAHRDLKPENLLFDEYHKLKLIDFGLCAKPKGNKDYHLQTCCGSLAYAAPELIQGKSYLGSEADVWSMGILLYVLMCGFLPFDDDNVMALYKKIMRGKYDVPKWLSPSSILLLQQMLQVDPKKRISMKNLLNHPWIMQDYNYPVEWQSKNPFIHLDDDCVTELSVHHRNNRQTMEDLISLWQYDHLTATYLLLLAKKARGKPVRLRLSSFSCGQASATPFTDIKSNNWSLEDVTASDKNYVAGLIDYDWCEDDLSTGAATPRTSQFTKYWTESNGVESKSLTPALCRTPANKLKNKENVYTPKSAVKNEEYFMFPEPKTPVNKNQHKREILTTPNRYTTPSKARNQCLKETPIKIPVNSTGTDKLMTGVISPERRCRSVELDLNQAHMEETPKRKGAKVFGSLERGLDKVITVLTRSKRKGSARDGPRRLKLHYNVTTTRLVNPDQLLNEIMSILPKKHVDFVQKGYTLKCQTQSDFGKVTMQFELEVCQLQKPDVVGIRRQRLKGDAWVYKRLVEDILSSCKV

[41] = target: Serine/threonine-protein kinase PAK 2 (Homo sapiens) (UniProt Q13177); conditions: Compound concentration 1000.0 nM
[42] = target: cAMP-dependent protein kinase catalytic subunit PRKX (Homo sapiens) (UniProt P51817); conditions: Compound concentration 1000.0 nM
[43] = target: RAF proto-oncogene serine/threonine-protein kinase (Homo sapiens) (UniProt P04049); conditions: Compound concentration 1000.0 nM
[44] = target: Ephrin type-B receptor 2 (Homo sapiens) (UniProt P29323); conditions: Compound concentration 1000.0 nM
[45] = target: 5-hydroxytryptamine receptor 2C (Homo sapiens) (UniProt P28335); conditions: Compound concentration 10.0 uM

O=c1nc(-c2ccccn2)sc2ccccc12 [BTZO-1]
inactive: residual activity [1] 76% | residual activity [2] 94% | residual activity [3] 97% | residual activity [4] 100% | residual activity [5] 97% | residual activity [6] 79% | residual activity [7] 92% | residual activity [8] 100% | residual activity [9] 92% | residual activity [10] 100% | residual activity [11] 71% | residual activity [12] 71% | residual activity [13] 98% | residual activity [14] 73% | residual activity [15] 100% | residual activity [16] 86% | residual activity [17] 100% | residual activity [18] 100% | residual activity [19] 100% | residual activity [20] 100% | residual activity [21] 100% | residual activity [22] 84% | residual activity [23] 100% | residual activity [24] 67% | residual activity [25] 98% | residual activity [26] 100% | inhibition [27] 20.1% | residual activity [28] 100% | residual activity [29] 97% | residual activity [30] 100% | residual activity [31] 100% | residual activity [32] 100% | residual activity [33] 100% | residual activity [34] 100% | residual activity [35] 100% | residual activity [36] 85% | residual activity [37] 88% | residual activity [38] 94% | residual activity [39] 92% | residual activity [40] 82% | residual activity [41] 100% | residual activity [42] 100% | residual activity [43] 100% | residual activity [44] 100% | inhibition [45] 12.2%

O=C1NC(c2ccccn2)Sc2ccccc21 (stereo not given) [BTZO-4]
inactive: residual activity [1] 81% | residual activity [2] 100% | residual activity [3] 88% | residual activity [4] 76% | residual activity [5] 90% | residual activity [6] 87% | residual activity [7] 81% | residual activity [8] 100% | residual activity [9] 91% | residual activity [10] 100% | residual activity [11] 79% | residual activity [12] 68% | residual activity [13] 92% | residual activity [14] 77% | residual activity [15] 80% | residual activity [16] 75% | residual activity [17] 93% | residual activity [18] 89% | residual activity [19] 100% | residual activity [20] 100% | residual activity [21] 100% | residual activity [22] 77% | residual activity [23] 99% | residual activity [24] 77% | residual activity [25] 100% | residual activity [26] 90% | inhibition [27] 32.4% | residual activity [28] 100% | residual activity [29] 75% | residual activity [30] 91% | residual activity [31] 79% | residual activity [32] 86% | residual activity [33] 89% | residual activity [34] 90% | residual activity [35] 78% | residual activity [36] 85% | residual activity [37] 77% | residual activity [38] 84% | residual activity [39] 100% | residual activity [40] 81% | residual activity [41] 100% | residual activity [42] 100% | residual activity [43] 100% | residual activity [44] 71% | inhibition [45] 3.98%
